Assays:
Nav 1.7 [1] = biological target: T1, Nav 1.7 (Homo sapiens (Human), UniProt Q15858); experiment: Nav 1.7 IWQ in vitro assay (IonWorks Quattro population patch-clamp); assay type: cell-based; conditions: 293 cells stably transfected with Nav 1.7; second part of table; read-out: Nav1.7 IWQ IC50 IP
In short: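 HEK293 cells stably expressing Nav 1.7, recorded by automated population patch-clamp with a train of depolarizations producing increasing inactivation. Single compound concentration added during 3–8 min unclamped period, then same protocol repeated. Leak-corrected current at 26th pulse to −20 mV gave percent block (duplicate); IC50 fitted from concentration–block curves.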

Nav 1.7 [2] = biological target: T1, Nav 1.7; experiment: Nav 1.7 in vitro PX assay (PatchXpress whole cell voltage clamp); assay type: cell-based; conditions: 293 cells, human Nav1.7, partially inactivated state; read-out: Nav1.7 PX IC50 IP
In short: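 HEK293 cells stably expressing human Nav1.7, whole-cell voltage clamp on PatchXpress, held at potential giving 20–50% inactivation; current elicited by 20 msec pulse to −10 mV.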

T1 sequence (Q15858 whole entry): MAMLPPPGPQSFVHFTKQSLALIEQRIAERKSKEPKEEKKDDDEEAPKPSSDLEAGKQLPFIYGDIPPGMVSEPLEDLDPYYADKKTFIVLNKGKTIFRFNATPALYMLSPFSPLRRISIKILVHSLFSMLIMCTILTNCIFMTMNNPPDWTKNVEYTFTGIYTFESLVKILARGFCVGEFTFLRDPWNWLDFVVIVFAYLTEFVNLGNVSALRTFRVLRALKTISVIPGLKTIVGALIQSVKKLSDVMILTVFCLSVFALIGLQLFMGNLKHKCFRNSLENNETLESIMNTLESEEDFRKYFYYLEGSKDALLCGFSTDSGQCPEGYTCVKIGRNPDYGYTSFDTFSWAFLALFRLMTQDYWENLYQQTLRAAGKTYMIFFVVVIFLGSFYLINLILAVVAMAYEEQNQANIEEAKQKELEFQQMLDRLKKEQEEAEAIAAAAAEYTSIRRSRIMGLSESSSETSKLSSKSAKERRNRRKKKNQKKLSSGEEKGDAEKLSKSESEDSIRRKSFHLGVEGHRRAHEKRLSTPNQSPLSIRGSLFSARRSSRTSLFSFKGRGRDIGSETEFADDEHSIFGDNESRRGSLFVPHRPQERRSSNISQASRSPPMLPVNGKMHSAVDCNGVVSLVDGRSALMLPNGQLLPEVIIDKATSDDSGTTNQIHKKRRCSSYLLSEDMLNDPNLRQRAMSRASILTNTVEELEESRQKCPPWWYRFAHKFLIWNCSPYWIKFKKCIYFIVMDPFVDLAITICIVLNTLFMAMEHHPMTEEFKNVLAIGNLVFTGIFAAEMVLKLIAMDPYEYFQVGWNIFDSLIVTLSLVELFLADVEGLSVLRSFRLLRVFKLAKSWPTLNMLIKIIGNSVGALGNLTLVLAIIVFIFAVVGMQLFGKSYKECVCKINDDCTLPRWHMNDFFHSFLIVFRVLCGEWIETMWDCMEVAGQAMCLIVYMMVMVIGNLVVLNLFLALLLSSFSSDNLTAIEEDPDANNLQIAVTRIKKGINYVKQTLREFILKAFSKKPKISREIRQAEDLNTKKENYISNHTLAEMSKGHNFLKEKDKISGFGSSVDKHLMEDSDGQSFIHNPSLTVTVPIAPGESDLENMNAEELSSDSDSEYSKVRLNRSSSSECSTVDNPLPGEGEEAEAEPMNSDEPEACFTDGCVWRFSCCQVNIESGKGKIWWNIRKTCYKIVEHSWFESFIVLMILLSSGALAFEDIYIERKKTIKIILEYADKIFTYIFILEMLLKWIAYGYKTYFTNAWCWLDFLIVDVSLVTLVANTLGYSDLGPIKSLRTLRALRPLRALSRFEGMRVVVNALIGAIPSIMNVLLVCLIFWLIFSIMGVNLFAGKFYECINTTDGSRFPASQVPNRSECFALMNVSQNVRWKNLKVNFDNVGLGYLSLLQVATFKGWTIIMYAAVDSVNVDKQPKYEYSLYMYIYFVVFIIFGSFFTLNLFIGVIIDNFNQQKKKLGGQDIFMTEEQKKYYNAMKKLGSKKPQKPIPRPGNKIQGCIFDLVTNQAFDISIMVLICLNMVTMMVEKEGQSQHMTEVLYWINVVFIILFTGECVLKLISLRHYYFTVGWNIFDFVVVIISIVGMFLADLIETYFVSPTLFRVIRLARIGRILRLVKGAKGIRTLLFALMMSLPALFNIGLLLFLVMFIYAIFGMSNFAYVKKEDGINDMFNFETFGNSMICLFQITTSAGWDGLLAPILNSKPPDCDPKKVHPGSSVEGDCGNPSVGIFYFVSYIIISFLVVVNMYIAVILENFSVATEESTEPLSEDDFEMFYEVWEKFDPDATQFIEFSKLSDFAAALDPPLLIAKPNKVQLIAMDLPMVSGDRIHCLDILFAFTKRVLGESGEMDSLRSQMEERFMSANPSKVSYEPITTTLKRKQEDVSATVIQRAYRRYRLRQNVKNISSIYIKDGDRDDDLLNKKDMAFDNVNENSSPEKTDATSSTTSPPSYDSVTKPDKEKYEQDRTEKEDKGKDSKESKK

Row | Structure (SMILES) | IC50 (Nav 1.7 [1]) [nM] | IC50 (Nav 1.7 [2]) [nM]
1 | COc1cc(F)ccc1-c1nncc2cc(S(=O)(=O)Nc3ncc(F)s3)ccc12 [Example 256, 1-(4-FLUORO-2-METHOXYPHENYL)-N-(5-FLUOROTHIAZOL-2-YL)PHTHALAZINE-6-SULFONAMIDE] | 70 | 840
2 | COc1cc(C(F)(F)F)ccc1-c1nccc2cc(S(=O)(=O)Nc3nccs3)ccc12 [Example 196, 1-(2-METHOXY-4-(TRIFLUOROMETHYL)PHENYL)-N-(THIAZOL-2-YL)ISOQUINOLINE-6-SULFONAMIDE] | 10 | 298
3 | COc1cc(C#N)ccc1-c1ccnc2cc(S(=O)(=O)Nc3nccs3)ccc12 [Example 273, 4-(4-CYANO-2-METHOXYPHENYL)-N-(THIAZOL-2-YL)QUINOLINE-7-SULFONAMIDE] | 20 | 500
4 | COc1cc(NS(=O)(=O)c2ccc3c(-c4ccc(C(F)(F)F)cc4OC)nccc3c2)ncn1 [Example 181, 1-(2-METHOXY-4-(TRIFLUOROMETHYL)PHENYL)-N-(6-METHOXYPYRIMIDIN-4-YL)ISOQUINOLINE-6-SULFONAMIDE] | 110 | 1560
5 | COCCN1CCCC1c1nccc2cc(S(=O)(=O)Nc3nccs3)ccc12 (centres unmarked) [Example 246, 1-(1-(2-METHOXYETHYL)PYRROLIDIN-2-YL)-N-(THIAZOL-2-YL)ISOQUINOLINE-6-SULFONAMIDE] | 2150 | 27400
6 | COc1cc(Cl)ccc1-c1nccc2cc(S(=O)(=O)Nc3nccs3)ccc12 [Example 201, 1-(4-CHLORO-2-METHOXYPHENYL)-N-(THIAZOL-2-YL)ISOQUINOLINE-6-SULFONAMIDE] | 20 | 315
7 | COc1ccc(F)cc1-c1nccc2cc(S(=O)(=O)Nc3ccncn3)ccc12 [Example 148, 1-(5-FLUORO-2-METHOXYPHENYL)-N-(PYRIMIDIN-4-YL)ISOQUINOLINE-6-SULFONAMIDE] | 80 | 2410
8 | O=S(=O)(Nc1nccs1)c1ccc2c(-c3ccc(C(F)(F)F)cc3Br)nccc2c1 [Example 235, 1-(2-BROMO-4-(TRIFLUOROMETHYL)PHENYL)-N-(THIAZOL-2-YL)ISOQUINOLINE-6-SULFONAMIDE] | 50 | 150
9 | COc1cc(-c2cccc(F)c2)ccc1-c1nccc2cc(S(=O)(=O)Nc3nccs3)ccc12 [Example 202, 1-(3′-FLUORO-3-METHOXY-[1,1′-BIPHENYL]-4-YL)-N-(THIAZOL-2-YL)ISOQUINOLINE-6-SULFONAMIDE 2,2,2-TRIFLUOROACETATE] | 340 | 508
10 | COc1ccccc1-c1nncc2cc(S(=O)(=O)Nc3ncc(F)s3)ccc12 [Example 258] | 260 | 1050
11 | Cc1cc(Cl)ccc1-c1nccc2cc(S(=O)(=O)Nc3nccs3)ccc12 [Example 209, 1-(4-CHLORO-2-METHYLPHENYL)-N-(THIAZOL-2-YL)ISOQUINOLINE-6-SULFONAMIDE 2,2,2-TRIFLUOROACETATE] | 60 | 385
12 | COc1cc(C(F)(F)F)ccc1-c1nncc2cc(S(=O)(=O)Nc3ncc(F)s3)ccc12 [Example 255, N-(5-FLUOROTHIAZOL-2-YL)-1-(2-METHOXY-4-(TRIFLUOROMETHYL)PHENYL)PHTHALAZINE-6-SULFONAMIDE] | 20 | 150
13 | COc1ccc(OC(F)(F)F)cc1-c1nccc2cc(S(=O)(=O)Nc3ccncn3)ccc12 [Example 151, 1-(2-METHOXY-5-(TRIFLUOROMETHOXY)PHENYL)-N-(PYRIMIDIN-4-YL)ISOQUINOLINE-6-SULFONAMIDE] | 30 | 1020
14 | COc1cc(C#N)ccc1-c1ncnc2cc(S(=O)(=O)Nc3nccs3)ccc12 [Example 269, 4-(4-CYANO-2-METHOXYPHENYL)-N-(THIAZOL-2-YL)QUINAZOLINE-7-SULFONAMIDE] | 20 | 470
15 | O=S(=O)(Nc1nccs1)c1ccc2c(-c3ccc(F)cc3O)nccc2c1 [Example 189, 1-(4-FLUORO-2-HYDROXYPHENYL)-N-(THIAZOL-2-YL)ISOQUINOLINE-6-SULFONAMIDE] | 460 | 5960
16 | O=S(=O)(Nc1nccs1)c1ccc2c(N3CCC(c4ccccc4)C3)nccc2c1 (centres unmarked) [Example 243, 1-(3-PHENYLPYRROLIDIN-1-YL)-N-(THIAZOL-2-YL)ISOQUINOLINE-6-SULFONAMIDE] | 780 | 10700
17 | COc1ccc(C(F)(F)F)cc1-c1nccc2cc(S(=O)(=O)Nc3ccncn3)ccc12 [Example 139, 1-(2-METHOXY-5-(TRIFLUOROMETHYL)PHENYL)-N-(PYRIMIDIN-4-YL)ISOQUINOLINE-6-SULFONAMIDE] | 10 | 415
18 | N#Cc1cccc(COc2nccc3cc(S(=O)(=O)Nc4ccncn4)ccc23)c1 [Example 137, 1-((3-CYANOBENZYL)OXY)-N-(PYRIMIDIN-4-YL)ISOQUINOLINE-6-SULFONAMIDE] | 3910 | > 30000
19 | O=S(=O)(Nc1ncns1)c1ccc2c(N3CCC[C@@H]3c3cccnc3)cccc2c1 (single isomer, unassigned) [Example 87] | 460 | 1320

Row | Structure (SMILES) | IC50 (Nav 1.7 [1]) [nM] | IC50 (Nav 1.7 [2]) [nM]
20 | COc1ccc(-c2nccc3cc(S(=O)(=O)Nc4ccncn4)ccc23)c(OC)c1 [Example 172, 1-(2,4-DIMETHOXYPHENYL)-N-(PYRIMIDIN-4-YL)ISOQUINOLINE-6-SULFONAMIDE] | 270 | 16600
21 | COc1cc(Cl)ccc1-c1ncc(C#N)c2cc(S(=O)(=O)Nc3nccs3)ccc12 [Example 241, 1-(4-chloro-2-methoxyphenyl)-4-cyano-N-(thiazol-2-yl)isoquinoline-6-sulfonamide] | 240 | 480
22 | COc1cc(C(F)(F)F)ccc1-c1ncc(F)c2cc(S(=O)(=O)Nc3nccs3)ccc12 [Example 212, 4-FLUORO-1-(2-METHOXY-4-(TRIFLUOROMETHYL)PHENYL)-N-(THIAZOL-2-YL)ISOQUINOLINE-6-SULFONAMIDE] | 30 | 269
23 | COc1cc(C(F)(F)F)ccc1-c1nccc2cc(S(=O)(=O)Nc3cccnn3)ccc12 [Example 185, 1-(2-METHOXY-4-(TRIFLUOROMETHYL)PHENYL)-N-(PYRIDAZIN-3-YL)ISOQUINOLINE-6-SULFONAMIDE] | 270 | 2700
24 | O=S(=O)(Nc1ccncn1)c1ccc2c(-c3ccc(C(F)(F)F)cc3C3CCNCC3)cccc2c1 [Example 120] | 10 | 125
25 | COc1cc(F)ccc1-c1ncc(F)c2cc(S(=O)(=O)Nc3nccs3)ccc12 [Example 213, 4-FLUORO-1-(4-FLUORO-2-METHOXYPHENYL)-N-(THIAZOL-2-YL)ISOQUINOLINE-6-SULFONAMIDE] | 10 | 360
26 | O=S(=O)(Nc1nccs1)c1ccc2c(C3CCCN3C3CCOCC3)cccc2c1 (centres unmarked) [Example 102, 5-(1-(TETRAHYDRO-2H-PYRAN-4-YL)PYRROLIDIN-2-YL)-N-(THIAZOL-2-YL)NAPHTHALENE-2-SULFONAMIDE 2,2,2-TRIFLUOROACETATE] | 110 | 1540
27 | COc1cc(F)ccc1-c1ccnc2cc(S(=O)(=O)Nc3nccs3)ccc12 [Example 274, 4-(4-FLUORO-2-METHOXYPHENYL)-N-(THIAZOL-2-YL)QUINOLINE-7-SULFONAMIDE] | 30 | 490
28 | O=S(=O)(Nc1ccncn1)c1ccc2c(-c3ccc(C(F)(F)F)cc3Cl)nccc2c1 [Example 156, 1-(2-CHLORO-4-(TRIFLUOROMETHYL)PHENYL)-N-(PYRIMIDIN-4-YL)ISOQUINOLINE-6-SULFONAMIDE] | 220 | 2850
29 | COc1ncc(Cl)cc1-c1nccc2cc(S(=O)(=O)Nc3ccncn3)ccc12 [Example 168, 1-(5-CHLORO-2-METHOXYPYRIDIN-3-YL)-N-(PYRIMIDIN-4-YL)ISOQUINOLINE-6-SULFONAMIDE] | 30 | 1600
30 | COc1cc(C(F)(F)F)ccc1-c1nncc2cc(S(=O)(=O)Nc3ccncn3)ccc12 [Example 254, 1-(2-METHOXY-4-(TRIFLUOROMETHYL)PHENYL)-N-(PYRIMIDIN-4-YL)PHTHALAZINE-6-SULFONAMIDE] | 260 | 5260
31 | O=S(=O)(Nc1ccncn1)c1ccc2c(-c3ccc(C(F)(F)F)cc3-n3ccnc3)cccc2c1 [Example 121] | 30 | 864
32 | O=S(=O)(Nc1ccncn1)c1ccc2c(-c3ccc(C(F)(F)F)cc3)nccc2c1 [Example 141, N-(PYRIMIDIN-4-YL)-1-(4-(TRIFLUOROMETHYL)PHENYL)ISOQUINOLINE-6-SULFONAMIDE] | 2300 | 29600
33 | COc1ccc(C)cc1-c1nccc2cc(S(=O)(=O)Nc3ccncn3)ccc12 [Example 149] | 60 | 2400
34 | NC(=O)c1cc(C(F)(F)F)ccc1-c1nccc2cc(S(=O)(=O)Nc3nccs3)ccc12 [Example 227, 2-(6-(N-(THIAZOL-2-YL)SULFAMOYL)ISOQUINOLIN-1-YL)-5-(TRIFLUOROMETHYL)BENZAMIDE] | 110 | 2270
35 | Cn1cccc1-c1nccc2cc(S(=O)(=O)Nc3nccs3)ccc12 [Example 244, 1-(1-METHYL-1H-PYRROL-2-YL)-N-(THIAZOL-2-YL)ISOQUINOLINE-6-SULFONAMIDE] | 1170 | 11300
36 | COc1ncc(Cl)cc1-c1nccc2cc(S(=O)(=O)Nc3nccs3)ccc12 [Example 176, 1-(5-CHLORO-2-METHOXYPYRIDIN-3-YL)-N-(THIAZOL-2-YL)ISOQUINOLINE-6-SULFONAMIDE] | 30 | 507
37 | COc1cc(C(F)(F)F)ccc1-c1nccc2cc(S(=O)(=O)Nc3nncs3)ccc12 [Example 184, 1-(2-METHOXY-4-(TRIFLUOROMETHYL)PHENYL)-N-(1,3,4-THIADIAZOL-2-YL)ISOQUINOLINE-6-SULFONAMIDE] | 320 | 912

Source: patent publication US9012443B2 (Amgen Inc., priority 2011, dated 2015)
